# From publication PMC10218007, “Potential Clinically Relevant Effects of Sialylation on Human Serum AAG-Drug Interactions Assessed by Isothermal Titration Calorimetry: Insight into Pharmacoglycomics?” (International Journal of Molecular Sciences, 2023)
# Structures can show the parent of a compound that is named as a salt.
# Key:
# [1] = ref 46 lidocaine, 47 diltiazem, 48 clindamycin, 49 warfarin, cited from earlier work; for Cmax: usual therapeutic peak plasma level
# [2] = cited from earlier work; for pKa: ref (5) lidocaine and diltiazem, (6) clindamycin, (7) warfarin
# [3] = biological target: Native human AAG (AAG + s) (Homo sapiens, UniProt P02763); assay: ITC titration of native AAG (AAG + s) with drugs; assay type: binding; conditions: 310 K
# Chain of Native human AAG (AAG + s) (P02763 19-201): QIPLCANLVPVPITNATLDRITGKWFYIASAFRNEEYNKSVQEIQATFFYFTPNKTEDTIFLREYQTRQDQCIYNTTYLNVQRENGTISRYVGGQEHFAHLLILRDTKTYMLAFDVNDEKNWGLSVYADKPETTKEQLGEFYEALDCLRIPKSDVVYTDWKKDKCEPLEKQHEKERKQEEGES
# Description: (§1) All chemicals were used without further purification. Immobilized SialEXO® (derived from Akkermansia muciniphilla and expressed in E. Coli) was obtained from Smart Enzymes™ Genovis (Lund, Sweden), and HEPES buffer was obtained from VWR International (Leuven, Belgium). All other reagents were of analytical grade or better. All solutions were prepared immediately before the experiments in order to minimize contamination and/or impair the stability of solutions. The solutions for microcalorimetric titrations were prepared in 25 mM HEPES at pH 7.40 containing 150 mM NaCl (Kemika, Zagreb, Croatia), using doubly distilled water and 5 M NaOH (Kemika, Zagreb, Croatia) for adjusting the pH value. AAG and drug solutions were prepared by dissolving the appropriate amount of solid in the given solvent.
# The ITC titrations were performed on a MicroCal PEAQ–ITC calorimeter (Malvern Panalytical Ltd., Malvern, UK). The solutions were thoroughly degassed beforehand, under vacuum to avoid any formation of bubbles that might be present in the sample cell. All microcalorimetric measurements were performed at 37 °C. The volume of the sample cell was approximately 200 μ L and the volume of the burette (syringe) was 42 μ L. Each titration was performed in duplicate or triplicate. Blank experiments were performed to estimate corrections for the dilution heat.
# AAG solution (100 – 200 μ M) was loaded into the sample cell using a calibrated syringe (1 mL Hamilton) and titrated with 1 – 2 mM drug solutions. The sample cell was continuously stirred at 700 rpm. Differential power (DP) is arbitrarily applied to each titration. The interval between successive injections was 200 s, which is long enough for the signal to return to its baseline and to ensure equilibrium after each addition. Double distilled water was present in the reference cell during all experiments. To correct for the thermal effect, control titrations were performed for drug solution in buffer under the same conditions as the AAG–drug titrations and dilution heat was subtracted from the AAG–drug titration data.
# (§2) All ITC data were analyzed with MicroCal PEAQ-ITC Analysis Software 1.30 using the One Set Sites Fitting Model. […] All p values were calculated using the t-test() function in Microsoft Excel (Microsoft Corporation, Redmond, WA, USA).
# AAG + s or AAG − s = conditions: calculated; for Decrease of free drug concentration, AAG − s vs AAG + s, in the presence of HSA: with 0.64 mM HSA, depending on the conditions
# Excerpt: AAG is an acute-phase protein with variable concentration in plasma and this consequently affects the free drug concentration. Hyperquad simulation and speciation software (HySS 4.0.31) was used to calculate the fraction of free vs. bound drug by solving the mass balance equations using the measured binding affinities. […] The plasma concentrations of the drug vary over time depending on the dosing regimen, and steady–state concentrations were used in the model.
# In addition to AAG, human serum albumin (HSA) also plays a critical role in drug binding due to its high plasma concentration. Therefore, to obtain more realistic estimates, the free drug concentration was calculated taking into account the available data on the binding of the studied drugs to HSA.
# [4] = biological target: Desialylated human AAG (AAG − s) (Homo sapiens, UniProt P02763); assay: ITC titration of desialylated AAG (AAG − s) with drugs; assay type: binding; conditions: 310 K
# Chain of Desialylated human AAG (AAG − s) (P02763 19-201): as above
# Description: as §1
# The ITC titrations were performed on a MicroCal PEAQ–ITC calorimeter (Malvern Panalytical Ltd., Malvern, UK). The solutions were thoroughly degassed beforehand, under vacuum to avoid any formation of bubbles that might be present in the sample cell. All microcalorimetric measurements were performed at 37 °C. […]
# as §2
# AAG+s = conditions: log Ka = log (1/KD), KD in M; ref (2) lidocaine, (3) warfarin, (4) clindamycin; cited from earlier work
molecule,measurement,setting,value
"COc1ccc([C@@H]2Sc3ccccc3N(CCN(C)C)C(=O)[C@@H]2OC(C)=O)cc1 [Diltiazem, diltiazem hydrochloride]",Cmax,[1],0.44 µM
same,pKa,[2],8.03
same,"N (number of drug binding sites), AAG + s",[3],0.804 ± 0.238
same,"Δr S°, AAG + s",[3],7.80 ± 1.74 J K^−1 mol^−1
same,Decrease of free plasma concentration with AAG − s vs AAG + s,"AAG + s or AAG − s; AAG only, no HSA",20–30%
same,"N (number of drug binding sites), AAG − s",[4],0.868 ± 0.0290
"CCN(CC)CC(=O)Nc1c(C)cccc1C [Lidocaine, lidocaine]",Ctrough,[1]; usual therapeutic trough plasma level,6.40 µM
same,"Decrease of free drug concentration, AAG − s vs AAG + s, in the presence of HSA",AAG + s or AAG − s,10% to 40
"CC(=O)CC(c1ccccc1)c1c(O)c2ccccc2oc1=O (stereo not shown) [Warfarin, Warfarin sodium salt]",Cmax,[1],9.08 µM
same,pKa,[2],4.99
same,Reference AAG+s log KA,AAG+s,5.34
same,"N (number of drug binding sites), AAG + s",[3],0.654 ± 0.117
same,"Δr S°, AAG + s",[3],−191± 5.42 J K^−1 mol^−1
same,"Decrease of free drug concentration, AAG − s vs AAG + s, in the presence of HSA",AAG + s or AAG − s,10% to 40
same,"N (number of drug binding sites), AAG − s",[4],0.795 ± 0.0290
clindamycin phosphate,Fraction present in protonated form,[2]; at the measured pH (7.40),about 30%
